Counter-ions that a name gives are not always drawn. Like-named read-outs stand apart in the source and are kept apart here. Values belong to the compound of their own block, whether it stands above or below them.
Tests used:
[1] = molecular target: T1, Na⁺/H⁺ exchanger (Rattus norvegicus, UniProt P26431); experiment: Inhibition of Na⁺/H⁺ exchanger activity in vitro (change in intracellular pH during acid loading); type: cell-based
T1 construct: using the vascular smooth muscle cells isolated from the rat thoracic aorta; endogenous in cells; host or cells: primary vascular smooth muscle cells isolated from rat thoracic aorta
T1 sequence (P26431 whole entry): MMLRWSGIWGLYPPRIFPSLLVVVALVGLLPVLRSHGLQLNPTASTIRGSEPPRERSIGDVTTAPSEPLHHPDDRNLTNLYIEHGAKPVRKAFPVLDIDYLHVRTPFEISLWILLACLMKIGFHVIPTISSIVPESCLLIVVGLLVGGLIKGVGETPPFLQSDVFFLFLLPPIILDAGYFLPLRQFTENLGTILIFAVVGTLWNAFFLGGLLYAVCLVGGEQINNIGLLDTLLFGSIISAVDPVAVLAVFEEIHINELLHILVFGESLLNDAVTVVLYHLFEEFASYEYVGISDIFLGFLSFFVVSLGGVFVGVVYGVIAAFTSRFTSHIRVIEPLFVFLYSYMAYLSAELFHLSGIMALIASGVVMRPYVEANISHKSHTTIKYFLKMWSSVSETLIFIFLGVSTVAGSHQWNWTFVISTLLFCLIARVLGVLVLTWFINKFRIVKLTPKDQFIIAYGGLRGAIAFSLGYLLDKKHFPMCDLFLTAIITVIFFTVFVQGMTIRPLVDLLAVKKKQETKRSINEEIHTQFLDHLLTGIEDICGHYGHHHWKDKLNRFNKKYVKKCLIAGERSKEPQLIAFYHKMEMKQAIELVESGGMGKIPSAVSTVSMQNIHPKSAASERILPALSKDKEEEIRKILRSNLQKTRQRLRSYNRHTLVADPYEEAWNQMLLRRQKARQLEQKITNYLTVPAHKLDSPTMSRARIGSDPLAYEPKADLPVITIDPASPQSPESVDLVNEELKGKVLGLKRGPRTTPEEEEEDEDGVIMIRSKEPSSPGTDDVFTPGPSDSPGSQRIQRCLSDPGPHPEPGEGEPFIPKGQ
Experimental: That is, inhibition of the Na⁺/H⁺ exchanger activity was evaluated by the change in intracellular pH during acid loading, using the vascular smooth muscle cells isolated from the rat thoracic aorta.

[2] = molecular target: T1, Na⁺/H⁺ exchanger; experiment: Inhibition of Na⁺/H⁺ exchanger activity in vitro (change in cell viability during acid loading); type: cell-based; settings: minimum effective concentration, vascular smooth muscle cells isolated from the rat thoracic aorta
Experimental: The experiment was performed by modifying the method of Mungre et al. described in Exp. Cell Res., 193, 236 (1991). That is, inhibition of the Na⁺/H⁺ exchanger activity was evaluated by the change in cell viability during acid loading, using the vascular smooth muscle cells isolated from the rat thoracic aorta.
The compounds of the present invention shown in Examples were evaluated by the minimum effective concentration (MEC) for the inhibition of the Na⁺/H⁺ exchanger activity.

[3] = system: arrhythmia induced by reperfusion after rat coronary artery occlusion; experiment: Inhibition of ischemia- and reperfusion-induced arrhythmia in vivo
Experimental: The experiment was performed by modifying the method of Crome et al. described in J. Cardiovasc. […] That is, the prevention of arrhythmia induced by reperfusion after rat coronary artery occlusion was evaluated by the incidence of ventricular tachycardia and ventricular fibrillation as well as the mortality.

[4] = vascular smooth muscle cells isolated from the rat thoracic aorta, change in intracellular pH during acid loading, read-out: IC₅₀

Structure (SMILES): CN(C)c1nc(N)c(C(=O)N=C(N)N)nc1Cl [Dimethyl amiloride, reference compound]
- Inhibition of Na^+/H^+ Exchanger MEC [2]: 3.0 µM
- IC50 [1]: 600 nM

Structure (SMILES): Cn1c(C(=O)N=C(N)N)cc2ccccc21 [Example 1, 1-methyl-2-indoloylguanidine hydrochloride]
- Incidence of Ventricular Fibrillation ([3]; dose 0.1 mg/kg): 10%
- Incidence of Ventricular Tachycardia ([3]; dose 0.1 mg/kg): 70%
- Mortality ([3]; dose 0.1 mg/kg): 10%
- Incidence of Ventricular Fibrillation ([3]; dose 0.3 mg/kg): 0%
- Incidence of Ventricular Tachycardia ([3]; dose 0.3 mg/kg): 50%
- Mortality ([3]; dose 0.3 mg/kg): 0%
- IC50 [1, 4]: 58 nM

Structure (SMILES): CC(C)Oc1cccc2c1cc(C(=O)NC(=N)N)n2C [Example 58, 4-Isopropoxy-1-methy1-2-indoloylguanidine hydrochloride]
- Inhibition of Na^+/H^+ Exchanger MEC [2]: 0.3 µM

Structure (SMILES): CCN(c1nc(N)c(C(=O)NC(=N)N)nc1Cl)C(C)C [EIPA, 5-N-ethyl-N-isopropyl amiloride, reference compound]
- Incidence of Ventricular Fibrillation ([3]; dose 0.3 mg/kg): 56%
- Incidence of Ventricular Tachycardia ([3]; dose 0.3 mg/kg): 100%
- Mortality ([3]; dose 0.3 mg/kg): 44%
- Incidence of Ventricular Fibrillation ([3]; dose 1 mg/kg): 0%
- Incidence of Ventricular Tachycardia ([3]; dose 1 mg/kg): 43%
- Mortality ([3]; dose 1 mg/kg): 0%

Second part, led by results:

- IC50 [1, 4]: 2100 nM
Structure (SMILES): COc1cccc2c1cc(C(=O)N=C(N)N)n2C [Example 22, 4-Methoxy-1-methyl-2-indoloylguanidine hydrochloride]

- IC50 [1, 4]: 0.9 nM
Structure (SMILES): Cn1c(C(=O)N=C(N)N)cc2c(C(F)(F)F)cccc21 [Example 29, 1-Methyl-4-trifluoromethyl-2-indoloylguanidine hydrochloride]

- IC50 [1, 4]: 20 nM
Structure (SMILES): Cn1c(C(=O)NC(=N)N)cc2c(F)cccc21 [Example 55, 4-Fluoro-1-methyl-2-indoloylguanidine hydrochloride]

- IC50 [1, 4]: 140 nM
Structure (SMILES): NC(N)=NC(=O)c1nc(Cl)c(N2CCCCCC2)nc1N [5-Hexamethylene amiloride, reference compound]
- Inhibition of Na^+/H^+ Exchanger MEC [2]: 0.3 µM

- IC50 [1, 4]: 10 nM
Structure (SMILES): Cn1c(C(=O)N=C(N)N)cc2c(Cl)ccc(OCCCN)c21 [Example 118, 7-(3-Aminopropoxy)-4-chloro-1-methyl-2-indoloylguanidine hydrochloride]

- IC50 [1, 4]: 50 nM
Structure (SMILES): Cn1c(C(=O)N=C(N)N)cc2cccc(Cl)c21 [Example 8, 7-Chloro-1-methyl-2-indoloylguanidine hydrochloride]
